# Measurements: patent EP1285920A1, “C10 Ester sustituted taxanes as antitumor agents” (Florida State University Research Foundation, Inc., priority 2001, dated 2003)
# Read-outs that look alike come from different tables or passages of the source.
# Legend:
# VM46 colon carcinoma = test system: VM46 colon carcinoma
# Protocol: Dosing was initiated on Day 1. […] Taxotere was given i.v. at a dose of 70 mg/kg on a qd x 1 schedule.
# DU145 prostate carcinoma = conditions: for Mean Score / Stable Disease / Complete Response / Partial Response / Survivors: i.v. qd x 1 at estimated MTD (Taxol 24 mg/kg split); for Mean Score / Stable Disease / Toxic Deaths / Complete Response / Partial Response / Survivors: Day 91; for Stable Disease / Toxic Deaths / Complete Response / Partial Response / Survivors: number of 5 mice; for Stable Disease: tumor did not reach 1.5 g by end of study
# Description: Dosing was initiated on Day 1. […] Treatment groups are detailed in Table 5.
# A375 melanoma = conditions: for MDS (n): mean days of survival until neoplasm reached 2.0 g, terminated Day 60; for Mean Score: tumor scoring system
# Protocol: Dosing was initiated on Day 1. […] Taxotere was given i.v. on a qd x 1 schedule at a dose of 70 mg/kg. […] The study was terminated on Day 60. Treatment groups are detailed in Table 9.
# [1] = test system: Panc-1 pancreatic carcinoma; assay: In vivo evaluation against Panc-1 human pancreatic carcinoma (Example 17); conditions: for MDS: i.v. qd x 1 (compounds estimated MTD; Taxol 36 mg/kg split), days until tumor 1.5 g, ended Day 60; for MDS (n): mean days of survival until neoplasm reached 1.5 g, terminated Day 60; for Mean Score: tumor scoring system
# Protocol: The dosing volume was 0.3 ml per 20 g mouse.
# Female NCr-nude mice were implanted subcutaneously with 1 mm^3 Panc-1 pancreatic carcinoma fragments in the flank and sorted into treatment groups of six mice each. […] Dosing was initiated on Day 1. The antitumor compounds were given i.v. at an estimated maximum tolerated dose (MTD) appropriate for each agent on a qd x 1 schedule (single administration of compound). […] The vehicle was administered i.v. to control mice in Group 1 on the qd x 1 schedule. The study was terminated on Day 60.
# The mean days of survival is the number of days after which a neoplasm reached a size of 1.5 g and the animal was euthanized. A complete response is obtained if the tumor shrinks to a size smaller than its size on Day 1 of the study.
# HCT116 = assay: In Vitro cytotoxicity measured by the cell colony formation assay; type: cell-based, human; conditions: Homo sapiens, HCT-116; read-out: IN VITRO ID 50 HCT116
# In short: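 Four hundred cells per dish in McCoy's 5a medium with 10% FBS were allowed to attach for 5 h at 37 °C. They were then exposed to compound for 72 h at 37 °C, added as a 10× stock made fresh in medium. After HBSS rinsing and refeeding, colonies were counted after 7 days.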
# A2780 ovarian carcinoma = test system: A2780 ovarian carcinoma
# Protocol: Dosing was initiated on Day 1. […] Taxotere was given i.v. on a qd x 1 schedule at a dose of 70 mg/kg. […] The study was terminated on Day 60. Treatment groups are detailed in Table 7.
# [2] = test system: NCI-H1299 (H1299) carcinoma; assay: In vivo evaluation against NCI-H1299 human lung carcinoma xenograft (i.v., Example 11)
# Protocol: Antitumor compounds were formulated for an i.v. dosing regime prepared in the following vehicle: 10% ethanol, 10% Cremophor and 80% isotonic saline.
# Vehicle control animals were dosed twice intravenously with half the total volume being given separated by one hour. The study was terminated on Day 60.
# (§1) A complete response is obtained if the tumor is not palpable at the end of the study.
# A tumor scoring system was designed to provide a more quantitative ranking of efficacy (therapeutic potential) among the antitumor agents evaluated against the different human solid tumor xenografts. Each mouse in a study was given a score of from 1 to 10 at the end of the study. The scores can be summarized as follows:
# The individual score for each mouse was averaged into a mean score for each treatment group. […]
# The treatment protocol for the H1299 test was identical to the SK-MES test protocol. […]
# SKMES lung carcinoma = assay: In vivo evaluation of oral administration against SKMES human lung carcinoma xenograft (Example 21)
# Protocol: Female Nu/Nu mice (6-8 weeks of age; implanted with 1 mm^3 SKMES lung carcinoma fragments in the flank) were sorted into treatment groups of six mice each. […] Treatments were administered as a single oral bolus on Day 1, and the study was terminated on Day 60.
# as §1
# The total response rate is defined as the percentage of evaluable animals (excluding deaths due to procedure or toxicity) in a group that experience complete or partial responses at the termination of the study.
# [3] = VM46, i.v. qd x 1, six mice per group
# [4] = number of mice, i.v. qd x 1, mg/kg: Taxol 24, 0499 77, 0503 72.6, 0670 123.1, 0706 107.6, 0838 72.6, 0854 46.6, 0983 67.4, Taxotere 70, 6 mice/group
# [5] = number of mice, i.v. qd x 1, mg/kg: Taxol 24, 0499 77, 0503 72.6, 0670 123.1, 0706 107.6, 0838 72.6, 0854 46.6, 0983 67.4, Taxotere 70, 6 mice/group, Day 64
# [6] = i.v. qd x 1 at estimated MTD (Taxol 24 mg/kg as two split doses)
# [7] = A375, i.v. qd x 1, six mice per group
# [8] = i.v. qd x 1 at estimated MTD (Taxol 24 mg/kg, Taxotere 70 mg/kg), 6 mice/group (Taxotere 7)
# [9] = number of mice, i.v. qd x 1 at estimated MTD (Taxol 24 mg/kg, Taxotere 70 mg/kg), 6 mice/group (Taxotere 7)
# [10] = number of mice, i.v. qd x 1 at estimated MTD (Taxol 24 mg/kg, Taxotere 70 mg/kg), 6 mice/group (Taxotere 7), Day 60
# [11] = Panc-1 (Example 17), i.v. qd x 1, six mice per group
# [12] = i.v. qd x 1, mg/kg: Taxol 36, 0499 77, 0503 72.6, 0670 123.1, 0706 107.6, 0838 72.6, 0854 76.9, 6 mice/group
# [13] = number of mice, i.v. qd x 1, mg/kg: Taxol 36, 0499 77, 0503 72.6, 0670 123.1, 0706 107.6, 0838 72.6, 0854 76.9, 6 mice/group
# [14] = number of mice, i.v. qd x 1, mg/kg: Taxol 36, 0499 77, 0503 72.6, 0670 123.1, 0706 107.6, 0838 72.6, 0854 76.9, 6 mice/group, Day 60
# [15] = number of mice, i.v. qd x 1 at estimated MTD (Taxol 24 mg/kg, Taxotere 70 mg/kg, 0983 72.6 mg/kg), 5 mice/group (Taxotere 6), Day 60
# [16] = number of mice, single oral bolus Day 1, mg/kg: Taxol 40, 0687 228, 0503 73, 6 mice/group, Day 60
smiles,measurement,setting,value
CCC(=O)O[C@H]1C(=O)[C@@]2(C)[C@H]([C@H](OC(=O)c3ccccc3)[C@]3(O)C[C@H](OC(=O)[C@H](O)[C@H](C=C(C)C)NC(=O)OC(C)(C)C)C(C)=C1C3(C)C)[C@]1(OC(C)=O)CO[C@@H]1C[C@@H]2O [Compound 0499],tolerability,"VM46 colon carcinoma; VM46, i.v. qd x 1",well-tolerated
same,Toxic Deaths,VM46 colon carcinoma; [3],no toxic deaths
same,Mean Score,VM46 colon carcinoma; iv,2 ± 0.3
same,MDS (n),"VM46 colon carcinoma; iv, 1536 h",41.9 ± 4.2 (5) days
same,Toxic Deaths,VM46 colon carcinoma; [4],0
same,Complete Response,VM46 colon carcinoma; [5],0
same,Partial Response,VM46 colon carcinoma; [5],0
same,Stable Disease,VM46 colon carcinoma; [5],1
same,Survivors,VM46 colon carcinoma; [5],1
same,Mean Score,DU145 prostate carcinoma; 5 mice/group,4.4 ± 1.4
same,MDS (n),"DU145 prostate carcinoma; mean days of survival until tumor reached 1.5 g, i.v. qd x 1 at estimated MTD (Taxol 24 mg/kg as two split doses), 5 mice/group, study ended Day 91",67.2 ± 8.3 (3) days
same,Stable Disease,DU145 prostate carcinoma,1
same,Toxic Deaths,DU145 prostate carcinoma; [6],0
same,Complete Response,DU145 prostate carcinoma,1
same,Partial Response,DU145 prostate carcinoma,0
same,Survivors,DU145 prostate carcinoma,2
same,Stable Disease,A375 melanoma; [7],one
same,MDS (n),A375 melanoma; [8],30.5 ± 3.5 (3) days
same,Toxic Deaths,A375 melanoma; [9],2
same,Complete Response,A375 melanoma; [10],0
same,Partial Response,A375 melanoma; [10],0
same,Stable Disease,A375 melanoma; [10],1
same,Survivors,A375 melanoma; [10],1
same,Mean Score,A375 melanoma; [8],2.3 ± 0.9
same,MDS,[1]; Panc-1 (Example 17),47 to 56 days
same,Partial Response,[1]; [11],1
same,Stable Disease,[1]; [11],one
same,complete responses,[1]; [11],2
same,MDS (n),[1]; [12],56.1 ± 1.0 (2) days
same,Toxic Deaths,[1]; [13],0
same,Complete Response,[1]; [14],2
same,Partial Response,[1]; [14],1
same,Stable Disease,[1]; [14],1
same,Survivors,[1]; [14],4
same,Mean Score,[1]; [12],7.4 ± 1.4
same,IC50,HCT116,< 1 nM
CCC(=O)O[C@H]1C(=O)[C@@]2(C)[C@H]([C@H](OC(=O)c3ccccc3)[C@]3(O)C[C@H](OC(=O)[C@H](O)[C@@H](NC(=O)OC(C)(C)C)c4ccccn4)C(C)=C1C3(C)C)[C@]1(OC(C)=O)CO[C@@H]1C[C@@H]2O [Compound 0503],antitumor activity,"A2780 ovarian carcinoma; A2780, i.v. qd x 1","did not cause any complete responses, partial responses, or cases of stable disease"
same,MDS (n),"A2780 ovarian carcinoma; mean days of survival until neoplasm reached 2.0 g, i.v. qd x 1 at estimated MTD (Taxol 24 mg/kg, Taxotere 70 mg/kg, 0983 72.6 mg/kg), 5 mice/group (Taxotere 6), terminated Day 60",32.4 ± 4.7 (5) days
same,Toxic Deaths,"A2780 ovarian carcinoma; number of mice, i.v. qd x 1 at estimated MTD (Taxol 24 mg/kg, Taxotere 70 mg/kg, 0983 72.6 mg/kg), 5 mice/group (Taxotere 6)",0
same,Complete Response,A2780 ovarian carcinoma; [15],0
same,Partial Respons,A2780 ovarian carcinoma; [15],0
same,Stable Disease,A2780 ovarian carcinoma; [15],0
same,Survivors,A2780 ovarian carcinoma; [15],0
same,Mean Score,"A2780 ovarian carcinoma; tumor scoring system, i.v. qd x 1 at estimated MTD (Taxol 24 mg/kg, Taxotere 70 mg/kg, 0983 72.6 mg/kg), 5 mice/group (Taxotere 6)",2.8 ± 0.2
same,tolerability,"VM46 colon carcinoma; VM46, i.v. qd x 1",well-tolerated
same,partial responses,"VM46 colon carcinoma; VM46, i.v. qd x 1 (compounds estimated MTD; Taxol 24 mg/kg split), six mice per group, ended Day 64",four
same,Stable Disease,VM46 colon carcinoma; [3],two
same,Toxic Deaths,VM46 colon carcinoma; [3],no toxic deaths
same,response rate,"VM46 colon carcinoma; VM46, i.v. qd x 1 at estimated MTD",66.7%
same,Toxic Deaths,VM46 colon carcinoma; [4],0
same,Complete Response,VM46 colon carcinoma; [5],0
same,Partial Response,VM46 colon carcinoma; [5],4
same,Stable Disease,VM46 colon carcinoma; [5],1
same,Survivors,VM46 colon carcinoma; [5],5
same,Mean Score,"VM46 colon carcinoma; tumor scoring system, i.v. qd x 1, mg/kg: Taxol 24, 0499 77, 0503 72.6, 0670 123.1, 0706 107.6, 0838 72.6, 0854 46.6, 0983 67.4, Taxotere 70, 6 mice/group",7.3 ± 1.2
same,Partial Response,[2]; i.v. split dose qd x 1,0
same,Stable Disease,[2]; i.v. split dose qd x 1,3
same,antitumor activity,[2]; i.v. split dose qd x 1,significant efficacy
same,Survivors,"[2]; i.v. split dose qd x 1, six mice per group",5
same,Mean Score,"[2]; tumor score 1 to 10 per mouse, group mean",5.5 ± 1.6
same,total response rate,"DU145 prostate carcinoma; DU145, i.v. qd x 1 at estimated MTD, five mice per group",at least 50%
same,Mean Score,DU145 prostate carcinoma; 5 mice/group,6.2 ± 1.9
same,Stable Disease,DU145 prostate carcinoma,2
same,Toxic Deaths,DU145 prostate carcinoma; [6],1
same,Complete Response,DU145 prostate carcinoma,2
same,Partial Response,DU145 prostate carcinoma,0
same,Survivors,DU145 prostate carcinoma,4
same,survival extension compared to Group 1 controls,"A375 melanoma; A375, i.v. qd x 1",95%
same,Complete Response,A375 melanoma; [7],1
same,MDS (n),A375 melanoma; [8],28.1 ± 5.8 (3) days
same,Toxic Deaths,A375 melanoma; [9],2
same,Complete Response,A375 melanoma; [10],1
same,Partial Response,A375 melanoma; [10],0
same,Stable Disease,A375 melanoma; [10],0
same,Survivors,A375 melanoma; [10],1
same,Mean Score,A375 melanoma; [8],2.8 ± 1.5
same,complete responses,"SKMES lung carcinoma; SKMES, 0503 73 mg/kg single oral bolus, six mice",three
same,% Total Response,"SKMES lung carcinoma; complete or partial responses among evaluable animals, single oral bolus Day 1, mg/kg: Taxol 40, 0687 228, 0503 73",50.0%
same,MDS (n),"SKMES lung carcinoma; mean days of survival until neoplasm reached 2.0 g, single oral bolus Day 1, mg/kg: Taxol 40, 0687 228, 0503 73, 6 mice/group, terminated Day 60",29.8 ± 3.6 (3) days
same,Toxic Deaths,"SKMES lung carcinoma; number of mice, single oral bolus Day 1, mg/kg: Taxol 40, 0687 228, 0503 73, 6 mice/group",0
same,Complete Response,SKMES lung carcinoma; [16],3
same,Partial Response,SKMES lung carcinoma; [16],0
same,Stable Disease,SKMES lung carcinoma; [16],0
same,Survivors,SKMES lung carcinoma; [16],3
same,MDS,[1]; Panc-1 (Example 17),47 to 56 days
same,Stable Disease,[1]; [11],three
same,MDS (n),[1]; [12],52.5 ± 2.1 (3) days
same,Toxic Deaths,[1]; [13],0
same,Complete Response,[1]; [14],0
same,Partial Response,[1]; [14],0
same,Stable Disease,[1]; [14],3
same,Survivors,[1]; [14],3
same,Mean Score,[1]; [12],3.6 ± 0.4
same,IC50,HCT116,< 1 nM
